According to patent publication US12257251B2, “Use of FAK inhibitor in preparation of drug for treating tumors having NRAS mutation” (INXMED (NANJING) CO., LTD., priority 2019, dated 2025):

Assays:
[1] = Body weight change (tolerability) in the HT-1080 mouse study; type: in vivo; conditions: 12.5 mg/kg qd, end of the assay (day 13) versus day 1
Description: • 1. Materials and Method: • 1.1. Design of Research • Treatment began when the median tumor volume was between 70-130 mm^3. • 10 mice in the control group, and 7 mice in the treatment group. • Oral gavage once daily. • Control: 0.5% hydroxyethyl cellulose • BI 853520: 50 mg/kg, 25 mg/kg, 12.5 mg/kg, 6 mg/kg, • Tumor volume was measured 3 times a week and body weight was monitored daily. • Evaluation of treatment outcome was based on absolute volume of individual tumors. • Tolerability was assessed based on changes in body weight.
Tumor diameters were measured with calipers three times a week (Monday, Wednesday, and Friday). The volume of each tumor [in mm^3] was calculated according to the equation, “tumor volume=length×diameter^2×π/6”. To monitor the side effects of the treatment, the mice were checked daily for abnormalities and their body weights were measured daily. Animals were sacrificed at the end of the study (approximately two weeks after the start of treatment). During the study, animals with tumor necrosis or tumors larger than 2000 mm^3 were sacrificed ahead of schedule for ethical reasons.
At the end of the assay on day 13, statistical evaluation of tumor volume and body weight parameters was performed. […] A nonparametric approach was used, and the number of observations, median, minimum and maximum values were calculated. […]

[2] = system: HMVII (NRAS^Q61K) melanoma cell line; test: HMVII CDX model (melanoma with an NRAS mutation): tumor growth; type: in vivo, mouse; conditions: for Tumor growth compared to the control group (in words): HMVII model, daily treatment; for Mean TGI: daily, based on relative tumor volume on day 14
Description: 1.1. Test compound: BI853520, which was synthesized according to the method in the patent WO2010058032. BI853520 was formulated with 0.5% hydroxyethyl cellulose (Ashland).
1.2. Cells: The melanoma cell line GAK was purchased from JCRB Cell Bank, and HMVII cells were purchased from Sigma. GAK originated in the inguinal lymph nodes of patients with vaginal melanoma, whereas HMVII originated in primary vaginal melanoma. GAK and HMVII cells were cultured in tissue culture flasks containing 5% CO2 at 37° C. The media were Ham's F12 containing 10% heat-inactivated FBS and Ham's F10 containing 15% FBS, respectively. All media were supplemented with 100 U/mL penicillin, […] streptomycin, and 2 mM GlutaMAX. All cell culture reagents were purchased from GIBCO.
Both HMVII and GAK cell lines carried an NRAS mutation at the Q61 position. HMVII (NRAS^Q61K) and GAK (NRAS^Q61L)
1.3. Mice: 4-week-old female balb/c nude mice (purchased from Beijing Vital River Laboratory Animal Technology Co., Ltd.). After arriving in the animal room, the mice were allowed to acclimate to the new environment for at least 2 weeks before being used for assay. The animals were housed under standard conditions (temperature: 21.5±1.5° C., humidity: 55±10%). A Standard diet and autoclaved tap water were provided ad libitum. All animal care and experimental procedures were performed in accordance with the animal care ethics guidelines approved by the Medical Ethics Committee of Beijing Cancer Hospital and Research Institute.
To establish subcutaneous tumors, HMVII and GAK cells were harvested by trypsinization, centrifuged, washed and resuspended in ice-cold PBS+5% FCS. Then 100 l of the cell suspension containing 5×10^6 cells was injected subcutaneously into the right flank of nude mice (1 site per mouse). When tumors were well established and reached a median volume of approximately 400-600 mm^3, mice were randomly assigned to the treatment group and the control group.
1.5. Administration: BI 853520 was formulated in 0.5% hydroxyethyl cellulose, which was intragastrically administered through gavage needle every day, and the dosage was 10 mL/Kg body weight.
Tumor diameters were measured twice a week with calipers. The volume [mm^3] of each tumor was calculated according to the equation “tumor volume=length×diameter^2×π/6”. Animals were sacrificed at the end of the study (approximately two weeks after the start of treatment). During the study, animals with necrotic tumors or tumors exceeding 2000 mm^3 in size were sacrificed for ethical reasons.
Tumor volumes were statistically assessed at the end of the assay. For tumor volume, relative values were used.
The number of observations, and the median, minimum and maximum tumor volumes were calculated. For a quick overview of possible treatment effects, the following metrics were calculated: • Relative tumor volume: (T/C)
[formula] • TGI from day 1 to day d: TGI=100×[(Cd−C1)−(Td−T1)]/(Cd−C1) • wherein, C1, T1=mean relative tumor volume in control and treatment groups at the start of the assay (day 1); • Cd, Td=mean relative tumor volume in control and treatment groups at the end of the assay (day d).
Statistical evaluation was performed using the Student's t-test function in Microsoft Excel, using two-tailed distribution and two-sample equal variance type.
The significance level was fixed at α=5%. […]

Question: Which Median weight change [1] does the source give for COc1cc(C(=O)NC2CCN(C)CC2)c(F)cc1Nc1ncc(C(F)(F)F)c(Oc2cccc3c2C(=O)N(C)C3)n1 [BI853520] here?
Answer: 5.7%

Question: What about the “Tumor growth compared to the control group (in words)” value [2] of the same molecule?
Answer: inhibit tumor growth

Question: What about the “Tumor growth compared to the control group (in words)” value ([2]; listed as BI 853520) of the same molecule?
Answer: delayed tumor growth

Question: And the Mean tumor volume ([2]; HMVII, 50 mg/kg (1st week), 25 mg/kg (2nd week), daily gavage, day 14)?
Answer: 671 ± 606 mm^3

Question: What about the “Mean TGI” value ([2]; HMVII, 50 mg/kg (1st week), 25 mg/kg (2nd week)) of the same molecule?
Answer: 60%

Question: What about the “Mean TGI” value ([2]; HMVII, 50 mg/kg (1st week), 25 mg/kg (2nd week), listed as BI 853520) of the same molecule?
Answer: 60%
